What was measured:
Assay type in all cases: cell-based
[1] = target: PPARα (Homo sapiens (Human), UniProt Q07869); test: Nuclear receptor reporter gene (luciferase) screening model, PPARα activation in HepG2 cells; details: for Experiment results (relative activation fold) PPARα: HepG2, solvent control = 1; for EC50: HepG2 reporter gene, 6 concentrations; for activation effect on PPARα receptor (in words): screening results
Excerpt: (§1) Using a reporter gene method, a screening model for screening a nuclear receptor agonist in living cells is designed on the basis of the principal that a nuclear receptor can activate transcription of its downstream gene after being activated. A reporter gene plasmid is constructed, in which the DNA binding sequence for the nuclear receptor (NRE) is inserted at the upstream of a luciferase gene, such that the expression of the luciferase gene is regulated by the nuclear receptor. The reporter gene plasmid is transferred into a cell simultaneously with the nuclear receptor. The nuclear receptor will be activated when a nuclear receptor agonist presents in the cell culture medium. The receptor being activated can induce the expression of the luciferase gene, while the amount of generated luciferase can be determined with its luminescent substrate. In this way, the intensity of activation of the nuclear receptor by the compound can be determined by observing the luminescence intensity. For the calibration of the experimental error caused by factors such as transfection efficiency, amount of inoculated cells, toxicity of the compound, etc, a GFP plasmid is co-transfected simultaneously as the internal reference. In the analysis of the experimental results, the luminescent values tested for all wells are calibrated with GFP values. The experimental results are expressed as relative activation fold, with a value of 1 for the solvent control. The greater the fold is, the higher the activation capacity represents.
(§2) The detailed procedure is described as follows:
(§3) Hepatocarcinoma cell HepG2 (from ATCC, American Type Culture Collection) was cultured in a DMEM medium supplemented with 10% heat-inactivated fetal bovine serum (FBS, Invitogen, Grand Island, N.Y., USA) in a T-75 culture flask (Greiner, Germany) placed in a 5% CO2 incubator at 37° C. and 100% relative humidity.
(§4) On the next day, when the cells in the 96-well culture plate grew up to 50-80% confluency, cell transfection was performed. The cell co-transfection system comprised FuGene6 transfection agent (Roche Molecular Biochemicals, Indianapolis, Ind., U.S.A.) and 60 ng DNA (10 ng hRXR, 10 ng pCMV βGal, 10 ng nuclear receptor expression plasmid RXR/PPARα, δ, γ, 30 ng GFP fluorescence reporter gene plasmid, respectively).
(§5) The cell culture medium was discarded immediately after 24 hours of transfection and replaced by 200 μl fresh DMEM medium containing the test medicament (with 10% FBS treated by activated carbon). The final concentration gradients of the test medicament were 10 μM, 5 μM, 1 μM, 0.1 μM, 0.01 μM, 0.001 μM, and 0 μM. 0.05 μM 2-bromostearic acid (purchased from Sigma, USA) was used as the positive control. The final concentration of DMSO in each well was 0.1%.
(§6) After 24 h treatment with the medicament, the cells were lysed with a lysis solution (Cell Culture Lysis buffer, Promega) and centrifuged, and the supernatant was collected. The supernatant was reacted with a fluorescence assay kit (Promega) and counted by a fluorometer (Ascent Fluoroskan FL reader, Thermo Labsystems, Finland), and the relative intensity of luciferase was determined. For the assay of the β-galactosidase activity used in the experiment as the internal reference (the internal reference for calibrating the transfection efficiency), 50 μl of the supernatant was transferred into a fresh microplate, treated with a Promega kit, and the value was read with a microplate reader at a wavelength of 405 nm (Bio-tech Instruments Inc., Winooski, Vt., USA) (Sauerberg, P.; Olsen, G. S.; Jeppesen, L.; Mogensen, J. P. et al., J. Med. Chem., 2007, 50, 1495-1503).
(§7) In the present screening protocol, it was calculated according to the activation of the receptor by the sample at 6 different concentrations.
(§8) The concentration-activity profile of the effects of a compound was fitted by carrying out iterative computation according to the following formula, and corresponding EC50 was calculated: […]

[2] = target: PPARδ (Homo sapiens (Human), UniProt Q03181); test: Nuclear receptor reporter gene (luciferase) screening model, PPARδ activation in HepG2 cells; details: for Experiment results (relative activation fold) PPARδ: HepG2, solvent control = 1; for EC50: HepG2 reporter gene, 6 concentrations; for activation effect on PPARδ receptor (in words): screening results
Chain of PPARδ (Q03181 whole entry, species assumed): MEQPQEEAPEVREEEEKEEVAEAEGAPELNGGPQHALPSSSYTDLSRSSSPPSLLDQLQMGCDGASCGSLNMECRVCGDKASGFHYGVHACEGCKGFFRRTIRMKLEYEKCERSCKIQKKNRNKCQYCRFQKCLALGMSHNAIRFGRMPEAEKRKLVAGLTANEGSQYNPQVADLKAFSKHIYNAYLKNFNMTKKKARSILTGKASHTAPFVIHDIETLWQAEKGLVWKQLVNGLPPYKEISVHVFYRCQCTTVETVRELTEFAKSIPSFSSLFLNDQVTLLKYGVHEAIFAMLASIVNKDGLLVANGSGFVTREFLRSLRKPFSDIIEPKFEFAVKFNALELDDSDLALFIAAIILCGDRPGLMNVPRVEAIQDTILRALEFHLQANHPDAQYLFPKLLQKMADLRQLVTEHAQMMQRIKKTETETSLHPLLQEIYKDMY
Chain of PPARδ (P19793 whole entry partner, species assumed): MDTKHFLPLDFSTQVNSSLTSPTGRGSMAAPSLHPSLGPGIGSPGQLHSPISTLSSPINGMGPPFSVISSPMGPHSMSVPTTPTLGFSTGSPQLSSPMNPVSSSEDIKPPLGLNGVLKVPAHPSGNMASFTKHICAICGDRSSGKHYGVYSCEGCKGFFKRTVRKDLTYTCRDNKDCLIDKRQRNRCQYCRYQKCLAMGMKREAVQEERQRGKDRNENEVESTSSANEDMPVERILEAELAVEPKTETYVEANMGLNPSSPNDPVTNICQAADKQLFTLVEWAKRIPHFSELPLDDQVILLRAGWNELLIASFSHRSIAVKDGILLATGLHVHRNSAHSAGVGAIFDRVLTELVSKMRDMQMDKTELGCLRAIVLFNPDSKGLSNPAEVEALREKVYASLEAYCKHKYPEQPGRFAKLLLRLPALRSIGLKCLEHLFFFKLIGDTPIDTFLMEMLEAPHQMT
Excerpt: as §1, §2, §3, §4, §5, §6, §7, §8

[3] = target: PPARγ (Homo sapiens (Human), UniProt P37231); test: Nuclear receptor reporter gene (luciferase) screening model, PPARγ activation in HepG2 cells; details: for Experiment results (relative activation fold) PPARγ: HepG2, solvent control = 1; for EC50: HepG2 reporter gene, 6 concentrations; for activation effect on PPARγ receptor (in words): screening results
Chain of PPARγ (P37231 whole entry, species assumed): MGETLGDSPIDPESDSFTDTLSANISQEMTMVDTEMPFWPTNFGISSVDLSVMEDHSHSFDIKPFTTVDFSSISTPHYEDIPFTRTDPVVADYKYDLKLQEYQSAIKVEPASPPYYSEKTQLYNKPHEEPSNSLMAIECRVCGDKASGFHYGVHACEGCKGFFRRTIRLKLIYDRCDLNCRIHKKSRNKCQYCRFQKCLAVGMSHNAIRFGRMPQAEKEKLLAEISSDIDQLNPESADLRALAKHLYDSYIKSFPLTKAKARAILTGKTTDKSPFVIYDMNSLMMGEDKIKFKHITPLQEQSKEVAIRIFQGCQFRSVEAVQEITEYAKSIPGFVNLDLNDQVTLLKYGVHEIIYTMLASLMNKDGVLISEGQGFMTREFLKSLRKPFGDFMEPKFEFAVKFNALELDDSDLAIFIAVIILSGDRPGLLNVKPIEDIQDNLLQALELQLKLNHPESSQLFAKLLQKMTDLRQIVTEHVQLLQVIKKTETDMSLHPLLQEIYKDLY
Chain of PPARγ (P19793 whole entry partner, species assumed): as the sequence (P19793 whole entry partner, species assumed) above
Excerpt: as §1, §2, §3, §4, §5, §6, §7, §8

Chain of PPARα (Q07869 whole entry, species assumed): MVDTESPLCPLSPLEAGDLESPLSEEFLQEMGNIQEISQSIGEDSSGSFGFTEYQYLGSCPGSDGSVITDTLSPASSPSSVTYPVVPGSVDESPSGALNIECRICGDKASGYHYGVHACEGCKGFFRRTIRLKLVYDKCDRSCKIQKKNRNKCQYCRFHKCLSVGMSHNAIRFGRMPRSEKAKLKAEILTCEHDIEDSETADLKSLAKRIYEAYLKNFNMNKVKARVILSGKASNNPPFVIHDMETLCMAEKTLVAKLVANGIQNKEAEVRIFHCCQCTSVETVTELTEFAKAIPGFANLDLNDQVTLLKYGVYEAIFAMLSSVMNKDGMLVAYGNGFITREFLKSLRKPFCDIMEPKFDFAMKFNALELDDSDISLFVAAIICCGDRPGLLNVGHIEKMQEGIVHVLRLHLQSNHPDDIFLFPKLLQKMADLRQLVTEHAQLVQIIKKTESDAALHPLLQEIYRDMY
Chain of PPARα (P19793 whole entry partner, species assumed): as the sequence (P19793 whole entry partner, species assumed) above

In the case of `CCc1cc(OCCc2nc(-c3ccc(F)cc3)oc2C)ccc1CCC(=O)O` [Compound 1, 3-(2-ethyl-4-{2-[2-(4-fluorophenyl)-5-methyloxazol-4-yl]ethoxyl}phenyl)propionic acid], the “Experiment results (relative activation fold) PPARα” value ([1]; 0.001 uM) is reported as 1.00 fold, the “Experiment results (relative activation fold) PPARα” value ([1]; 0.01 uM) is reported as 1.08 fold and the “Experiment results (relative activation fold) PPARα” value ([1]; 0.1 uM) is reported as 1.12 fold. For the same compound, the “Experiment results (relative activation fold) PPARα” value ([1]; 1 uM) was 1.36 fold, the “Experiment results (relative activation fold) PPARα” value ([1]; 5 uM) was 1.35 fold and the “Experiment results (relative activation fold) PPARα” value ([1]; 10 uM) was 1.72 fold. The EC50 [1] was 29 nM, the “activation effect on PPARα receptor (in words)” value [1] was “better activation effects” and the “Experiment results (relative activation fold) PPARδ” value ([2]; 0.001 uM) was 1.07 fold. For the same compound, the “Experiment results (relative activation fold) PPARδ” value ([2]; 0.01 uM) was 1.12 fold, the “Experiment results (relative activation fold) PPARδ” value ([2]; 0.1 uM) was 1.19 fold and the “Experiment results (relative activation fold) PPARδ” value ([2]; 1 uM) was 1.40 fold. The “Experiment results (relative activation fold) PPARδ” value ([2]; 5 uM) was 1.33 fold, the “Experiment results (relative activation fold) PPARδ” value ([2]; 10 uM) was 1.80 fold and the EC50 [2] was 29 nM. For the same compound, the “activation effect on PPARδ receptor (in words)” value [2] was “better activation effects”, the “Experiment results (relative activation fold) PPARγ” value ([3]; 0.001 uM) was 1.09 fold and the “Experiment results (relative activation fold) PPARγ” value ([3]; 0.01 uM) was 1.21 fold. The “Experiment results (relative activation fold) PPARγ” value ([3]; 0.1 uM) was 1.26 fold, the “Experiment results (relative activation fold) PPARγ” value ([3]; 1 uM) was 1.45 fold and the “Experiment results (relative activation fold) PPARγ” value ([3]; 5 uM) was 1.62 fold. The “Experiment results (relative activation fold) PPARγ” value ([3]; 10 uM) was 2.01 fold, the EC50 [3] was 13 nM and the “activation effect on PPARγ receptor (in words)” value [3] was “better activation effects”.

In the case of `CCc1cc(OCCc2coc(-c3ccc(C(F)(F)F)cc3)n2)ccc1CCC(=O)O` [Compound 2], the “Experiment results (relative activation fold) PPARα” value ([1]; 0.001 uM) is reported as 1.01 fold, the “Experiment results (relative activation fold) PPARα” value ([1]; 0.01 uM) is reported as 1.06 fold and the “Experiment results (relative activation fold) PPARα” value ([1]; 0.1 uM) is reported as 1.16 fold. For the same compound, the “Experiment results (relative activation fold) PPARα” value ([1]; 1 uM) was 1.30 fold, the “Experiment results (relative activation fold) PPARα” value ([1]; 5 uM) was 1.38 fold and the “Experiment results (relative activation fold) PPARα” value ([1]; 10 uM) was 1.82 fold. For the same compound, the EC50 [1] was 5500 nM, the “Experiment results (relative activation fold) PPARδ” value ([2]; 0.001 uM) was 1.02 fold and the “Experiment results (relative activation fold) PPARδ” value ([2]; 0.01 uM) was 1.17 fold. The “Experiment results (relative activation fold) PPARδ” value ([2]; 0.1 uM) was 1.17 fold, the “Experiment results (relative activation fold) PPARδ” value ([2]; 1 uM) was 1.34 fold and the “Experiment results (relative activation fold) PPARδ” value ([2]; 5 uM) was 1.45 fold. The “Experiment results (relative activation fold) PPARδ” value ([2]; 10 uM) was 1.99 fold, the EC50 [2] was under 1 nM and the “Experiment results (relative activation fold) PPARγ” value ([3]; 0.001 uM) was 1.09 fold. For the same compound, the “Experiment results (relative activation fold) PPARγ” value ([3]; 0.01 uM) was 1.26 fold, the “Experiment results (relative activation fold) PPARγ” value ([3]; 0.1 uM) was 1.26 fold and the “Experiment results (relative activation fold) PPARγ” value ([3]; 1 uM) was 1.49 fold. For the same compound, the “Experiment results (relative activation fold) PPARγ” value ([3]; 5 uM) was 1.73 fold, the “Experiment results (relative activation fold) PPARγ” value ([3]; 10 uM) was 2.28 fold and the EC50 [3] was 692 nM.

For `CCc1cc(OCCc2nc(-c3ccc(C(F)(F)F)cc3)oc2C)ccc1CCC(=O)O` [Compound 3], the “Experiment results (relative activation fold) PPARα” value ([1]; 0.001 uM) was 0.99 fold, the “Experiment results (relative activation fold) PPARα” value ([1]; 0.01 uM) was 1.11 fold and the “Experiment results (relative activation fold) PPARα” value ([1]; 0.1 uM) was 1.19 fold. The “Experiment results (relative activation fold) PPARα” value ([1]; 1 uM) was 1.28 fold, the “Experiment results (relative activation fold) PPARα” value ([1]; 5 uM) was 1.33 fold and the “Experiment results (relative activation fold) PPARα” value ([1]; 10 uM) was 1.79 fold. The EC50 [1] was 4 nM, the “activation effect on PPARα receptor (in words)” value [1] was “better activation effects” and the “Experiment results (relative activation fold) PPARδ” value ([2]; 0.001 uM) was 1.11 fold. For the same compound, the “Experiment results (relative activation fold) PPARδ” value ([2]; 0.01 uM) was 1.17 fold, the “Experiment results (relative activation fold) PPARδ” value ([2]; 0.1 uM) was 1.22 fold and the “Experiment results (relative activation fold) PPARδ” value ([2]; 1 uM) was 1.34 fold. The “Experiment results (relative activation fold) PPARδ” value ([2]; 5 uM) was 1.50 fold, the “Experiment results (relative activation fold) PPARδ” value ([2]; 10 uM) was 1.94 fold and the EC50 [2] was under 1 nM. For the same compound, the “activation effect on PPARδ receptor (in words)” value [2] was “better activation effects”, the “Experiment results (relative activation fold) PPARγ” value ([3]; 0.001 uM) was 1.10 fold and the “Experiment results (relative activation fold) PPARγ” value ([3]; 0.01 uM) was 1.30 fold. For the same compound, the “Experiment results (relative activation fold) PPARγ” value ([3]; 0.1 uM) was 1.32 fold, the “Experiment results (relative activation fold) PPARγ” value ([3]; 1 uM) was 1.56 fold and the “Experiment results (relative activation fold) PPARγ” value ([3]; 5 uM) was 1.78 fold. The “Experiment results (relative activation fold) PPARγ” value ([3]; 10 uM) was 2.06 fold, the EC50 [3] was 5 nM and the “activation effect on PPARγ receptor (in words)” value [3] was “better activation effects”.
